These are literature values, as cited in patent US20020142346A1, “Binding compounds and methods for identifying binding compounds” (priority 2000, published 2002).

One series has as its target Src. The note with it: binding domain Src; preferred peptide.
In the next series the target is T1, SH2 (src) (Homo sapiens, UniProt P12931).
T1 construct: SH2 (src)
Conditions: binding domain SH2 (src); preferred peptide.

With EPQpYEEIPIYLK, the Kd on Src is 80 nM.

Take PYEEIY: on SH2 (src), the Kd is 100 nM.

One may read the Kd as the constant that tells how readily two partners part at equilibrium.
